Literature values in patent US20250161231A1, “LUTEIN FOR USE IN INHIBITING MAST CELL DEGRANULATION” (N.V. NUTRICIA, priority 2022, published 2025).

Tested on: human mast cells
Details: literature, Int Arch Allergy Immunol 113, 335-336, 1997

CC1=C(/C=C/C(C)=C/C=C/C(C)=C/C=C/C=C(C)/C=C/C=C(C)/C=C/C2=C(C)CCCC2(C)C)C(C)(C)CCC1 [beta-carotene]
inhibition of histamine release from human mast cells: dose-dependent inhibition
